Results from US20260285850A1, “SUBSTITUTED OXAZOLIDINONES AND IMIDAZOLINONES AS HERBICIDES” (FMC CORPORATION, priority 2023, published 2026).

How the values were obtained:
Assay type in all cases: in vivo
[1] = test system: horseweed (Erigeron canadensis); assay: Test A postemergence application, visual injury rating 0-100
Procedure, shortened: (§1)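 Scale 0–100 (no effect to complete control), visual, versus untreated controls, read 10 days after application. Application: preemergence directed spray onto seeded loam–sand soil, or postemergence to young plants; formulation in non-phytotoxic solvent with surfactant.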

soybean (Glycine max) [2] = assay: as above
Procedure, shortened: as §1

[3] = test system: galium (catchweed bedstraw, Galium aparine); assay: as above
Procedure, shortened: as §1

kochia (Bassia scoparia) [4] = assay: as above
Procedure, shortened: as §1

[5] = test system: barnyardgrass (Echinochloa crus-galli); assay: as above
Procedure, shortened: as §1

[6] = test system: blackgrass (Alopecurus myosuroides); assay: as above
Procedure, shortened: as §1

[7] = test system: ragweed (common ragweed, Ambrosia artemisiifolia); assay: as above
Procedure, shortened: as §1

[8] = test system: wheat (Triticum aestivum); assay: as above
Procedure, shortened: as §1

[9] = test system: ryegrass, Italian (italian ryegrass, Lolium multiflorum); assay: as above
Procedure, shortened: as §1

corn (Zea mays) [10] = assay: as above
Procedure, shortened: as §1

[11] = test system: oat, wild (wild oat, Avena fatua); assay: as above
Procedure, shortened: as §1

[12] = test system: palmer (palmer amaranth, palmer pigweed, Amaranthus palmeri); assay: as above
Procedure, shortened: as §1

[13] = test system: green foxtail (Setaria viridis); assay: as above
Procedure, shortened: as §1

soybean (Glycine max) [14] = assay: Test A preemergence soil spray, visual injury rating 0-100; conditions: 10 days
Procedure, shortened: as §1

kochia (Bassia scoparia) [15] = assay: as above; conditions: 10 days
Procedure, shortened: as §1

[16] = test system: barnyardgrass (Echinochloa crus-galli); assay: as above; conditions: 10 days
Procedure, shortened: as §1

[17] = test system: blackgrass (Alopecurus myosuroides); assay: as above; conditions: 10 days
Procedure, shortened: as §1

[18] = test system: ragweed (common ragweed, Ambrosia artemisiifolia); assay: as above; conditions: 10 days
Procedure, shortened: as §1

[19] = test system: wheat (Triticum aestivum); assay: as above; conditions: 10 days
Procedure, shortened: as §1

[20] = test system: ryegrass, Italian (italian ryegrass, Lolium multiflorum); assay: as above; conditions: 10 days
Procedure, shortened: as §1

corn (Zea mays) [21] = assay: as above; conditions: 10 days
Procedure, shortened: as §1

[22] = test system: oat, wild (wild oat, Avena fatua); assay: as above; conditions: 10 days
Procedure, shortened: as §1

[23] = test system: palmer (palmer amaranth, palmer pigweed, Amaranthus palmeri); assay: as above; conditions: 10 days
Procedure, shortened: as §1

[24] = test system: green foxtail (Setaria viridis); assay: as above; conditions: 10 days
Procedure, shortened: as §1

[25] = test system: barnyardgrass (Echinochloa crusgalli); assay: Test B flooded paddy test, visual plant response rating 0-100; conditions: 250 g ai/ha, Flood, applied to paddy water, evaluated after 13 days
Procedure, shortened: (§2)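 Greenhouse, 13 d. Seedlings at 2-leaf stage, pots flooded to 3 cm, compound delivered into floodwater, water level held constant. Evaluated visually relative to controls.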

rice (Oryza sativa) = assay: as above; conditions: 250 g ai/ha, Flood, applied to paddy water, evaluated after 13 days
Procedure, shortened: as §2

[26] = test system: ducksalad (Heteranthera limosa); assay: as above; conditions: 250 g ai/ha, Flood, applied to paddy water, evaluated after 13 days
Procedure, shortened: as §2

[27] = test system: sedge, umbrella (small-flower umbrella sedge, Cyperus difformis); assay: as above; conditions: 250 g ai/ha, Flood, applied to paddy water, evaluated after 13 days
Procedure, shortened: as §2

[28] = 62 g ai/ha, postemergence, 10 days, 0 = no effect, 100 = complete control
[29] = Postemergence, 16 g ai/ha, greenhouse 10 days, 0 no effect, 100 complete control
[30] = 62 g ai/ha, 0 = no effect, 100 = complete control

SMILES: CC(C)COC(=O)C1=CCC(NC(=O)C2(C)CN(c3cc(F)cc(F)c3)C(=O)O2)C1 (stereo not shown) [Compound 97]
- Horseweed plant response rating (0-100) [1, 28]: 0
- Horseweed plant response rating (0 to 100 scale) [1, 29]: 0
- Soybean plant response rating (0-100) (soybean (Glycine max) [2]; [28]): 40
- Soybean plant response rating (0 to 100 scale) (soybean (Glycine max) [2]; [29]): 0
- Galium plant response rating (0-100) [3, 28]: 60
- Galium plant response rating (0 to 100 scale) [3, 29]: 20
- Kochia plant response rating (0-100) (kochia (Bassia scoparia) [4]; [28]): 70
- Kochia plant response rating (0 to 100 scale) (kochia (Bassia scoparia) [4]; [29]): 30
- Barnyardgrass plant response rating (0-100) [5, 28]: 20
- Barnyardgrass plant response rating (0 to 100 scale) [5, 29]: 0
- Blackgrass plant response rating (0-100) [6, 28]: 0
- Blackgrass plant response rating (0 to 100 scale) [6, 29]: 0
- Ragweed plant response rating (0-100) [7, 28]: 20
- Ragweed plant response rating (0 to 100 scale) [7, 29]: 0
- Wheat plant response rating (0-100) [8, 28]: 10
- Wheat plant response rating (0 to 100 scale) [8, 29]: 0
- Ryegrass, Italian plant response rating (0-100) [9, 28]: 0
- Ryegrass, Italian plant response rating (0 to 100 scale) [9, 29]: 0
- Corn plant response rating (0-100) (corn (Zea mays) [10]; [28]): 0
- Corn plant response rating (0 to 100 scale) (corn (Zea mays) [10]; [29]): 0
- Oat, Wild plant response rating (0-100) [11, 28]: 0
- Oat, Wild plant response rating (0 to 100 scale) [11, 29]: 0
- Pigweed, Palmer plant response rating (0-100) [12, 28]: 10
- Pigweed, Palmer plant response rating (0 to 100 scale) [12, 29]: 0
- Foxtail, Green plant response rating (0-100) [13, 28]: 0
- Foxtail, Green plant response rating (0 to 100 scale) [13, 29]: 0
- Soybean plant response rating (soybean (Glycine max) [14]; 16 g ai/ha, 0 to 100 scale): 0
- Soybean plant response rating (0-100) (soybean (Glycine max) [14]; [30]): 0
- Kochia plant response rating (kochia (Bassia scoparia) [15]; 16 g ai/ha, 0 to 100 scale): 0
- Kochia plant response rating (0-100) (kochia (Bassia scoparia) [15]; [30]): 0
- Barnyardgrass plant response rating ([16]; 16 g ai/ha, 0 to 100 scale): 0
- Barnyardgrass plant response rating (0-100) [16, 30]: 0
- Blackgrass plant response rating ([17]; 16 g ai/ha, 0 to 100 scale): 0
- Blackgrass plant response rating (0-100) [17, 30]: 0
- Ragweed plant response rating ([18]; 16 g ai/ha, 0 to 100 scale): 0
- Ragweed plant response rating (0-100) [18, 30]: 0
- Wheat plant response rating ([19]; 16 g ai/ha, 0 to 100 scale): 0
- Wheat plant response rating (0-100) [19, 30]: 10
- Ryegrass, Italian plant response rating ([20]; 16 g ai/ha, 0 to 100 scale): 0
- Ryegrass, Italian plant response rating (0-100) [20, 30]: 0
- Corn plant response rating (corn (Zea mays) [21]; 16 g ai/ha, 0 to 100 scale): 0
- Corn plant response rating (0-100) (corn (Zea mays) [21]; [30]): 0
- Oat, Wild plant response rating ([22]; 16 g ai/ha, 0 to 100 scale): 0
- Oat, Wild plant response rating (0-100) [22, 30]: 0
- Pigweed, Palmer plant response rating ([23]; 16 g ai/ha, 0 to 100 scale): 0
- Pigweed, Palmer plant response rating (0-100) [23, 30]: 0
- Foxtail, Green plant response rating ([24]; 16 g ai/ha, 0 to 100 scale): 20
- Foxtail, Green plant response rating (0-100) [24, 30]: 60
- Plant response rating, Barnyardgrass (0 to 100 scale, 0 is no effect and 100 is complete control) [25]: 0
- Plant response rating, Rice (0 to 100 scale, 0 is no effect and 100 is complete control) (rice (Oryza sativa)): 0
- Plant response rating, Ducksalad (0 to 100 scale, 0 is no effect and 100 is complete control) [26]: 0
- Plant response rating, Sedge, Umbrella (0 to 100 scale, 0 is no effect and 100 is complete control) [27]: 0
